By MIC is commonly meant the least concentration at which growth counts as inhibited. Higher therefore signals weaker potency. A word on the IC50: it is the concentration that gives 50% inhibition. A lower IC50 goes with greater potency.

The structures appear in SMILES notation. ≈ marks a conversion by molar mass, not a printed value.

Assay [1] concerns Streptococcus pneumoniae. In words: Antimicrobial activity against penicillin-resistant Streptococcus pneumoniae 2527 by CLSI method. Type of assay: functional.
Assay [2] concerns Streptococcus pneumoniae. Description: Antimicrobial activity against Streptococcus pneumoniae 1394 by CLSI method. Type of assay: functional.
Assay [3] relates to Streptococcus pneumoniae. Description: Antimicrobial activity against penicillin-sensitive Streptococcus pneumoniae 3009 by CLSI method. The class given is functional.
Assay [4] deals with Streptococcus pneumoniae. In words: Antimicrobial activity against penicillin-sensitive Streptococcus pneumoniae 1076 by CLSI method. Type of assay: functional.
Assay [5] relates to Streptococcus pneumoniae. In words: Antimicrobial activity against penicillin-sensitive Streptococcus pneumoniae 1077 by CLSI method. Type of assay: functional.
The target in assay [6] is T1, Penicillin-binding protein 1A (Streptococcus pneumoniae serotype 4 (strain ATCC BAA-334 / TIGR4), UniProt Q04707).
T1 sequence (Q04707 whole entry): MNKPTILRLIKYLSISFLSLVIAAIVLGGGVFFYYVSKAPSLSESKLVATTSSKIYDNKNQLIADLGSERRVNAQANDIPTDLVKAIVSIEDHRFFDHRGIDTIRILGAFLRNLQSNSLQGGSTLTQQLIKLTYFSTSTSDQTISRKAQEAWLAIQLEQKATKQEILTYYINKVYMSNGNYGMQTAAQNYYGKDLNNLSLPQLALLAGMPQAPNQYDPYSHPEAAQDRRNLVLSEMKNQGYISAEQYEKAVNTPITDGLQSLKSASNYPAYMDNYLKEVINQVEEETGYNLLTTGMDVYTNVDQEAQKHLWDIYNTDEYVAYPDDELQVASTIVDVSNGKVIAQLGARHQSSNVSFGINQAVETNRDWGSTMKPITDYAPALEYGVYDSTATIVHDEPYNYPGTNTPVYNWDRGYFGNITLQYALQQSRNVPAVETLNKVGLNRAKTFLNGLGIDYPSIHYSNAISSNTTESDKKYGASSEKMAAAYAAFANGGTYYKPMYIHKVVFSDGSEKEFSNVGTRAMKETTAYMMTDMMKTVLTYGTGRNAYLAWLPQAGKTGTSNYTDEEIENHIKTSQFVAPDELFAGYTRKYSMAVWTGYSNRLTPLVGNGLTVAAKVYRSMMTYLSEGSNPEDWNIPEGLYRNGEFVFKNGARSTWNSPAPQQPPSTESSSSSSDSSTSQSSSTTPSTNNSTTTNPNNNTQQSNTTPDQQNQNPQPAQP
In words: Displacement of Biocillin FL from Streptococcus pneumoniae 24 PBP1A.

Assay [7] has as its target T1, Penicillin-binding protein 1A. In words: Displacement of Biocillin FL from Streptococcus pneumoniae 1076 PBP1A.
In assay [8] the target is T2, Penicillin-binding protein 2x (Streptococcus pneumoniae serotype 4 (strain ATCC BAA-334 / TIGR4), UniProt P14677).
T2 sequence (P14677 whole entry): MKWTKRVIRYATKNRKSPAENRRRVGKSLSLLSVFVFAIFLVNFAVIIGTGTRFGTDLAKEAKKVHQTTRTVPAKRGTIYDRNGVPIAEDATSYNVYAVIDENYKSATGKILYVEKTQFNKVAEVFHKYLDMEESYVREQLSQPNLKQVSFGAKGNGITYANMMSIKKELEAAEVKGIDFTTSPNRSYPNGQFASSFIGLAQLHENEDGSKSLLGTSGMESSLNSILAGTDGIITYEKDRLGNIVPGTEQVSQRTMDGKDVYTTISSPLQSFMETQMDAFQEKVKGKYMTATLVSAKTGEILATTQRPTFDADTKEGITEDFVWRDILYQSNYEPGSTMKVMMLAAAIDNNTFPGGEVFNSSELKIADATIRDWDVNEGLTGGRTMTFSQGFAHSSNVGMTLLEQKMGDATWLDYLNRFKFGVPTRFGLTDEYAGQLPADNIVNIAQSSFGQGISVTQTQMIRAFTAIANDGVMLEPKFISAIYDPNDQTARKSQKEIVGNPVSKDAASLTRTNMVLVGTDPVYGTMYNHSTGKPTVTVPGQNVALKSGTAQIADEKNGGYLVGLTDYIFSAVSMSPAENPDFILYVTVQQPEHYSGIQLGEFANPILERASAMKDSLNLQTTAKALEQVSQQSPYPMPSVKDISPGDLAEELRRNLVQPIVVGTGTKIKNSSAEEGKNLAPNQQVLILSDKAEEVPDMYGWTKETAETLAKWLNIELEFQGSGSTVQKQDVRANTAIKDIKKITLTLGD
In words: Displacement of Biocillin FL from Streptococcus pneumoniae 2527 PBP2X.

Assay [9] concerns the target T2, Penicillin-binding protein 2x. Description: Displacement of Biocillin FL from Streptococcus pneumoniae 3676 PBP2X.
Assay [10] has the same target. In words: Displacement of Biocillin FL from Streptococcus pneumoniae 3665 PBP2X.
For assay [11] the target is unchanged. In words: Displacement of Biocillin FL from Streptococcus pneumoniae 3009 PBP2X.
For assay [12] the target is unchanged. Description: Displacement of Biocillin FL from Streptococcus pneumoniae 1076 PBP2X.
The nature of assay [13]: Displacement of Biocillin FL from Streptococcus pneumoniae 24 PBP2A.
Assay [14] is described as follows: Displacement of Biocillin FL from Streptococcus pneumoniae 3413 PBP2A.
Assay [15] in a line: Displacement of Biocillin FL from Streptococcus pneumoniae 3676 PBP2A.
Assay [16] in a line: Displacement of Biocillin FL from Streptococcus pneumoniae 3665 PBP2A.
In assay [17] the target is T3, Penicillin-binding protein 2B (Streptococcus pneumoniae serotype 4 (strain ATCC BAA-334 / TIGR4), UniProt P0A3M5).
T3 sequence (P0A3M5 whole entry): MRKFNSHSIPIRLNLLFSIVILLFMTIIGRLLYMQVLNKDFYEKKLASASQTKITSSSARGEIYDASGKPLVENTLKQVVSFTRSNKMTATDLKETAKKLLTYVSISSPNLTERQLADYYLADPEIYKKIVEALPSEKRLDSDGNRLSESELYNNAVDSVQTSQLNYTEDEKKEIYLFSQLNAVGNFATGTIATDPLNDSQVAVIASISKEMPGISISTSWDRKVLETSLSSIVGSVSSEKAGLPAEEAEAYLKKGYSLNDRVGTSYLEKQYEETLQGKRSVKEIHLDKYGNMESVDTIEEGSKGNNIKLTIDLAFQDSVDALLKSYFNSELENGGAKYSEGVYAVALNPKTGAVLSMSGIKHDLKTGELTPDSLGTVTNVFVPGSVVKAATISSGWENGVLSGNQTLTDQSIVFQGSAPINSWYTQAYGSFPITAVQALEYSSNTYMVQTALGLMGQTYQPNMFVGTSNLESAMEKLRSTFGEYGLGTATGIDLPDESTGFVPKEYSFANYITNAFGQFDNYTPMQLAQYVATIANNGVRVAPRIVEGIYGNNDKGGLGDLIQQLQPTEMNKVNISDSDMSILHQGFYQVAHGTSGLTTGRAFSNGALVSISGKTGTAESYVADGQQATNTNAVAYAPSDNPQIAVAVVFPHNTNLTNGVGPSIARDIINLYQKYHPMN
In words: Displacement of Biocillin FL from Streptococcus pneumoniae 3413 PBP2B.

Assay [18] concerns the target T3, Penicillin-binding protein 2B. In words: Displacement of Biocillin FL from Streptococcus pneumoniae 3676 PBP2B.
Assay [19] has the same target. Description: Displacement of Biocillin FL from Streptococcus pneumoniae 3009 PBP2B.
Assay [20] shares this target. Description: Displacement of Biocillin FL from Streptococcus pneumoniae 1077 PBP2B.
Assay [21] is described as follows: Displacement of Biocillin FL from Streptococcus pneumoniae 3243 PBP3.

On to `CC1(C)S[C@@H]2[C@H](NC(=O)[C@H](N)c3ccc(O)cc3)C(=O)N2[C@H]1C(=O)O` [AMOXICILLIN], for which the MIC in assay [1] was found to be 1 µg/mL (≈ 2.74 µM); in assay [2], 8 µg/mL (≈ 21.9 µM); in assay [3] it was 0.016 µg/mL (≈ 0.0438 µM); in [4], 0.016 µg/mL (≈ 0.0438 µM); in assay [5] it was 0.016 µg/mL (≈ 0.0438 µM). Moreover, the IC50 is 10.9 nM in assay [6]; 120 nM in assay [7]; 10.9 nM in [8]; 118 nM in assay [9]; 257 nM in assay [10]; 21.9 nM in [11]. Further, the half-maximal inhibitory concentration (IC50) was 101 nM in [12]; 0.077 µg/mL (≈ 0.211 µM) in [13]; 0.034 µg/mL (≈ 0.093 µM) in assay [14]; 0.066 µg/mL (≈ 0.181 µM) in assay [15]; 0.05 µg/mL (≈ 0.137 µM) in assay [16]; 452 nM in assay [17]. In addition, the IC50 is 394 nM in assay [18], 137 nM in assay [19], 82.1 nM in [20] and 0.006 µg/mL (≈ 0.0164 µM) in [21].
For the compound `CO/N=C(\C(=O)N[C@@H]1C(=O)N2C(C(=O)O)=C(COC(N)=O)CS[C@H]12)c1ccco1` [CEFUROXIME], the MIC was found to be 8 µg/mL (≈ 18.9 µM) in assay [1]; 16 µg/mL (≈ 37.7 µM) in assay [2]; 0.03 µg/mL (≈ 0.0707 µM) in assay [3]; 0.03 µg/mL (≈ 0.0707 µM) in [4]; 0.03 µg/mL (≈ 0.0707 µM) in assay [5]. The IC50 in assay [6] is 9.43 nM; in assay [7], 9.43 nM; in assay [8], 7.07 nM; in [9] it was 47.1 nM; in assay [10] it was 33 nM; in assay [11], 0.0943 nM. Moreover, the IC50 in assay [12] is 4.71 nM; in assay [13], 0.016 µg/mL (≈ 0.0377 µM); in [14] it was 0.002 µg/mL (≈ 0.00471 µM); in assay [15], 0.011 µg/mL (≈ 0.0259 µM); in [16], 0.009 µg/mL (≈ 0.0212 µM); in assay [17], 1.18 nM. In addition, the IC50 in assay [18] was 1110 nM; in assay [19] it was 3900 nM; in assay [20], 2740 nM; in assay [21], 0.023 µg/mL (≈ 0.0542 µM).
Take `C[C@@H](O)[C@H]1C(=O)N2C(C(=O)O)=C([C@H]3CCCO3)S[C@H]12` [FAROPENEM]: the MIC was 1 µg/mL (≈ 3.5 µM) in assay [1]; 0.03 µg/mL (≈ 0.105 µM) in assay [2]; 0.03 µg/mL (≈ 0.105 µM) in [3]; 0.03 µg/mL (≈ 0.105 µM) in assay [4]; 0.03 µg/mL (≈ 0.105 µM) in assay [5]. The IC50 was 31.5 nM in [6]; 52.6 nM in assay [7]; 116 nM in [8]; 59.6 nM in assay [9]; 606 nM in [10]; 214 nM in assay [11]. Besides, the IC50 was 221 nM in assay [12]; 0.023 µg/mL (≈ 0.0806 µM) in [13]; 0.007 µg/mL (≈ 0.0245 µM) in [14]; 0.053 µg/mL (≈ 0.186 µM) in assay [15]; 0.015 µg/mL (≈ 0.0526 µM) in assay [16]; 498 nM in assay [17]. The IC50 in assay [18] was 151 nM; in assay [19], 24.5 nM; in assay [20] it was 28 nM; in [21], 0.004 µg/mL (≈ 0.014 µM).
As to `C[C@@H](O)[C@H]1C(=O)N2C(C(=O)O)=C(SCCNC=N)C[C@H]12` [IMIPENEM ANHYDROUS], the MIC in assay [1] stood at 0.25 µg/mL (≈ 0.835 µM); in assay [2] it was 0.25 µg/mL (≈ 0.835 µM); in [3] it was 0.008 µg/mL (≈ 0.0267 µM); in [4], 0.008 µg/mL (≈ 0.0267 µM); in assay [5] it was 0.008 µg/mL (≈ 0.0267 µM). In addition, the IC50 in [6] is 1470 nM; in [7] it was 301 nM; in [8], 60.1 nM; in assay [9] it was 130 nM; in assay [10], 1980 nM; in [11], 334 nM. The IC50 in assay [12] was 197 nM; in assay [13], 0.352 µg/mL (≈ 1.18 µM); in [14] it was 0.337 µg/mL (≈ 1.13 µM); in [15], 0.115 µg/mL (≈ 0.384 µM); in assay [16], 0.233 µg/mL (≈ 0.778 µM); in assay [17], 2890 nM. In addition, the IC50 in assay [18] is 1320 nM; in assay [19], 154 nM; in assay [20], 154 nM; in assay [21], 0.095 µg/mL (≈ 0.317 µM).
Turning to `CC1(C)S[C@@H]2[C@H](NC(=O)Cc3ccccc3)C(=O)N2[C@H]1C(=O)O` [PENICILLIN G], the MIC in assay [1] came out at 2 µg/mL (≈ 5.98 µM); in assay [2] it was 4 µg/mL (≈ 12 µM); in assay [3], 0.03 µg/mL (≈ 0.0897 µM); in assay [4], 0.03 µg/mL (≈ 0.0897 µM); in assay [5], 0.03 µg/mL (≈ 0.0897 µM). Further, the IC50 in assay [6] is 23.9 nM; in assay [7] it was 47.8 nM; in assay [8], 26.9 nM; in assay [9], 83.7 nM; in assay [10], 123 nM; in assay [11], 32.9 nM. The IC50 in assay [12] is 29.9 nM; in assay [13], 0.133 µg/mL (≈ 0.398 µM); in [14], 0.015 µg/mL (≈ 0.0449 µM); in assay [15], 0.013 µg/mL (≈ 0.0389 µM); in [16] it was 0.016 µg/mL (≈ 0.0478 µM); in assay [17], 532 nM. The IC50 in assay [18] was 789 nM; in assay [19], 20.9 nM; in assay [20], 111 nM; in [21], 0.007 µg/mL (≈ 0.0209 µM).

The values above are taken from ChEMBL document CHEMBL1649182, “Binding of faropenem and other beta-lactam agents to penicillin-binding proteins of pneumococci with various beta-lactam susceptibilities” (Antimicrob Agents Chemother, 2009).
